Data on nine molecules can be found in patent US12411143B2, “CD146 and uses thereof as a biomarker and as a therapeutic target in the diagnosis and treatment of fibrosis” (ASSISTANCE PUBLIQUE HÔPITAUX DE MARSEILLE, priority 2018, dated 2025).

Series [1] deals with ECFC. The series is described as follows: Soluble CD146 secretion in ECFC (ELISA). Particulars: for reduction of sCD146 secretion by siRNA: 24 h TNF 20 ng/ml; for effect of siRNA on sCD146 secretion: control condition; for sCD146 secretion with proteinase inhibitors: IF 50 μM, TIMPs 1 μg/ml; for secretion of soluble CD146 in response to stimuli: 24 h, 20 ng/ml TNF, 20 ng/ml VEGF, 5 ng/ml TGFb, 50 ng/ml netrin, 50 ng/ml Wnt5a. Format: cell-based, human. The protocol:
A: Secretion of soluble CD146 (CD146s) was determined in ECFC in response to 24 h of treatment with 20 ng/ml TNF, 20 ng/ml VEGF, 5 ng/ml TGFb, 50 ng/ml netrin, 50 ng/ml Wnt5a and 50 ng/ml Wnt3a.
B: The effect of the pan-inhibitor GM6001 was tested on CD146s secretion in ECFC cells by ELISA. Experiments were performed in control conditions and after treatment with 20 ng/ml TNF for 24 h. […] A dose-dependence of GM6001 effect was performed between 1 and 50 μM. Results are the mean values+/−SEM of 5 experiments.
C: The effect of furin convertase inhibitor (IF) was tested at 50 μMon CD146s secretion in control condition and after treatment with TNF 20 ng/ml for 24 h. Results are the mean values+/−SEM of 3 experiments.
D: Effect of TIMP-1, -2 and -3 (1 μg/ml) was tested on CD146s secretion in control condition and after treatment with 20 ng/ml TNF. Results are the mean values+/−SEM of 3 experiments. *: P<0.05, **: P<0.01, ***: P<0.001, experimental vs Control
A: ECFC were transfected with siRNA targeting the short (shCD146) or the long (IgCD146) isoforms of CD146 and with a control siRNA (C). Soluble CD146 (sCD146) secretion was determined. Results are the mean values+/−SEM of 4 different experiments.
B: ECFC were transfected with siRNA targeting MT1-MMP, MMP2, ADAM10 or Tace and with a control siRNA (C). Soluble CD146 (sCD146) secretion was determined. In one condition, cells were treated with GM6001 10 μM. Results are the mean values+/−SEM of 5 different experiments.
A: ECFC were transfected with siRNA targeting the short (shCD146) or the long (IgCD146) isoforms of CD146 and with a control siRNA (C) and soluble CD146 (sCD146) secretion was determined in basal condition and in cells treated for 24 h with TNF 20 ng/ml. Results are the mean values +/−SEM of 5 different experiments.
B: ECFC treated for 24 h with 20 ng/ml TNF were transfected with siRNA targeting Tace, ADAM10, MT1-MMP and with a control siRNA (C) and soluble CD146 (sCD146) secretion was determined. Results are the mean values +/−SEM of 3 different experiments.
Endothelial Colony Forming Cells (ECFC) were cultured in endothelial EGM-2 MV medium as previously described (Delorme B et al., 2005).
SiRNA designed to silence the different isoforms of sCD146 were generated. A control siRNA was also used in each experiment. siRNAs were introduced in endothelial cells using the Silence magmagnetofection kit as described by the manufacturer (OZ Biosciences).
Shed sCD146 was assayed using the commercial ELISA assay (CY-QUANT sCD146, Biocytex, Marseille). Plates were coated with specific mouse monoclonal anti-human CD146 F(ab′)2 fragments. 10 μL of sera was added to each well and incubated for 30 minutes at room temperature. After incubation, the plates were washed five times, followed by incubation with a specific HRP-coupled monoclonal antibody (7A4-HRP, 1 mg/ml, Biocytex, Marseille, France) at a 1:1 000 dilution in a specific diluent for 30 minutes at room temperature and then washed five times. 200 μL of tetramethylbenzidine (TMB) substrate was incubated for approximately 20 minutes at room temperature. The colorimetric reaction was then stopped by the addition of 100 μL of an acid solution. The intensity of the signal was directly related to the concentration of sCD146 initially contained in the sample. For detecting the two spliced isoforms of sCD146 (I5-13-sCD146 and I10-sCD146), the same immunoassay was used (Biocytex). The protocol was modified only for the second antibody (detection antibody) that was replaced by the anti-I5-13-sCD146 or anti-I10-sCD146 antibodies coupled to HRP.
Background: ELISA stands for enzyme-linked immunosorbent assay.

Series [2] relates to ECFC. The series is described as follows: Permeability of ECFC monolayer to dextran-FITC. Format: cell-based, human. Particulars: siRNA or plasmid transfection. The protocol: D: ECFC were transfected with siRNA targeting ADAM10 or Tace and with a control siRNA (C). The permeability of the ECFC monolayer grown on semi-permeable filters was determined using dextran-FITC. Results are the mean values+/−SEM of 3 experiments.
E: ECFC were transfected with plasmid vectors encoding ADAM10 (p-ADAM10) or Tace (p-Tace) and with a control plasmid vector (C). The permeability of the ECFC monolayer grown on semi-permeable filters was determined using dextran-FITC. Results are the mean values+/−SEM of 3 experiments. *: P<0.05, **: P<0.01, ***: P<0.001, experimental vs Control.
ECFC were seeded at 60,000 cells per well on membrane inserts (porosity 1 μm) of a 24-multiwell double chamber system (Multiwell Insert System, BD Biosciences, Le Pont de Claix, France) after siRNA transfection or not. Confluent endothelial monolayers were then incubated for 24 h in EGM-2 medium in the presence or absence of the different forms of sCD146. The FITC-dextran (sigma) was added at the apical surface of the cells and was allowed to migrate for 1.5 h at 37° C. Basolateral FITC-dextran was then measured using a Cytofluor Series 4000 Fluorescence (PerSeptiveBiosystems, Framingham, MA).

The test system of series [3] is ECFC. The series is described as follows: mRNA expression of sCD146 isoforms in ECFC (qPCR). The conditions noted are these: ECFC; 24 h treatment (WNT5a 15 min, WNT3a 1 h). Format: cell-based, human. The protocol:
C: The mRNA expression of I10-sCD146 and I5-13-sCD146 isoforms was analyzed by qPCR in ECFC after treatment of the cells for 24 h with the recombinant shed soluble CD146 50 ng/ml, VEGF 20 ng/ml, TNF 20 ng/ml, TGF beta 5 ng/ml, and netrin 50 ng/ml. Cells were also treated for 15 min with WNT5a 200 ng/ml and 1 h with WNT3a 50 ng/ml. Results are the mean values +/−SEM of 3 experiments. *: P<0.05, experimental vs Control.
Total cellular RNA was isolated from cells, reverse transcribed into cDNA and the resulting cDNA was subjected to qPCR.

For series [4], the system named is mouse ischemic hind limb model. The series is described as follows: Mouse hind limb ischemia model. Format: in vivo. The protocol:
A: Ischemic mice were treated with PBS or 2 μg of rh-sCD146/rh-I10-sCD146/rh-I5-13-sCD146 or VEGF. Blood perfusion rate was monitored by laser-Doppler. Results are mean values of 6 different animals in each group and expressed as % of the control leg. *, **, ***: P<0.05, P<0.01, P<0.001, I10-sCD146 vs. PBS; $$, $$$: P<0.01, P<0.001, I5-13-sCD146 vs. PBS; ##, ###: P<0.01, P<0.001, shed sCD146 vs. PBS; £: P<0.05, VEGF vs. PBS.
B: Blood vessels examination in hind limb muscle sections from control (PBS) and shed rh-sCD146/rh-I10-sCD146/rh-I5-13-sCD146 treated animals 28 days after surgery. Vessels are labelled with isolectin B4.**, ***: P<0.01, P<0.001, experimental vs control. $: P<0.05, I10-sCD146 vs I5-13-sCD146.
C: Angiographic pictures of control (PBS) and shed sCD146/I10-sCD146/I5-13-sCD146 treated animals at D28. Pictures are representative of the 6 animals in each group. Average of the density of the vessels was expressed as right versus left leg in the different parts of the legs (calf, thigh) and in the whole leg. *, **: P<0.01, P<0.001 experimental vs PBS in calf; $: P<0.05, experimental vs PBS in thigh; #, ##: P<0.05, P<0.01, experimental vs PBS in whole leg.
In sections of muscles from ischemic mice, vascularisation was visualized with isolectin B4 (Lifetechnologies) ( 1/100). Tissue sections were examined by fluorescence microscopy (Leica sp5, Leica, Nanterre, France).
Female mice were subjected to unilateral hind limb ischemia by complete resection of the entire left femoral artery. After surgery, animals were split in four treatment groups: one control group injected in ischemic adductor muscles twice a week with PBS for 28 days; three experimental groups treated as the control groups with the three different recombinant human soluble CD146 (rh-sCD146, rh-I5-13-sCD146, rh-I10-sCD146) 2 μg.
The ratio of the ischemic versus normal hind limb blood flow was measured using a laser doppler blood flow analyzer. At different time points post-surgery (days 1, 3, 7, 14, 21 and 28), animals were subjected to 3 consecutive laser scannings over the regions of interest (leg and feet). Blood flow was expressed as the ischemic versus normal hind limb ratio.
The animals were deeply anesthetised with mix of Ketamine Xylasine (100 mg/kg and 10 mg/kg respectively) and perfused intracardially with 2 ml of lipiodole. CT 3D images were obtained with a microPET/microCT rodent model scanner (nanoPET/CTO, Mediso) with features below: 70 kVp energy, exposure time of 300 ms and 720 projections and were quantified.

The mark [5] stands for this setting: control condition and TNF 20 ng/ml 24 h.

Take “ADAM10 siRNA: siRNA targeting ADAM10; sens 5′GAAUGGUAGAACAAGGUGAtt (sense GAAUGGUAGAACAAGGUGATT; antisense UCACCUUGUUCUACCAUUCCA; chemistry not given here)”: in the series with ECFC [1], the “reduction of sCD146 secretion by siRNA” value came out at 60% and the “effect of siRNA on sCD146 secretion” value is reported as “able to inhibit sCD146 secretion”. For the same molecule, in the series on ECFC [2], the “permeability of ECFC monolayer to dextran” value was “decreased”.

Consider “TIMP-1: TIMP used to inhibit sCD146 secretion”, for which the “sCD146 secretion with proteinase inhibitors” value in the series with ECFC [1] (setting [5]) is given as “able to reduce sCD146 secretion in both conditions”.

In the case of “TGFb: stimulus of endothelial cells, 5 ng/ml [reference compound]”, the “secretion of soluble CD146 in response to stimuli” value (“secretion of soluble CD146” below) in the series with ECFC [1] is given as “increased”. The “I5-13-sCD146 mRNA level” value in the series with ECFC [3] was “not modified”.

In the case of VEGF [reference compound], the “vascularisation of muscle (isolectin B4 labelling)” value in series [4] (28 days after surgery, compared to PBS) is reported as “vascularisation was increased”. The “vessel density in calf, thigh and whole leg (angiography quantification)” value in series [4] (D28, compared to PBS) is “significantly increased”. In the series on ECFC [1], the “secretion of soluble CD146” value was “increased”. In addition, in the series on ECFC [3], the “I5-13-sCD146 mRNA level” value is recorded as “not modified” and the “I10-sCD146 mRNA level” value is listed as “down-regulated”.

With `CNC(=O)[C@H](Cc1c[nH]c2ccccc12)NC(=O)[C@@H](CC(=O)NO)CC(C)C` [GM6001], in the series on ECFC [1] (control condition and TNF 20 ng/ml 24 h, GM6001 1-50 μM), the “GM6001-dependent part of total sCD146 secretion” value is on record as “around 75%”.

In the case of “shCD146 siRNA: siRNA targeting the short isoform of CD146; sens 5′CAGGAGAUGGAGAGAAAUACAUCGA (antisense UCGAUGUAUUUCUCUCCAUCUCCUG; chemistry not given here)”, in the series on ECFC [1], the “reduction of sCD146 secretion by siRNA” value is on record as about 25% and the “effect of siRNA on sCD146 secretion” value was “no effect”.

B1: TIMP-3: TIMP used to inhibit sCD146 secretion (protein, UniProt P35625 24-211, looked up)
Metalloproteinase inhibitor 3: CTCSPSHPQDAFCNSDIVIRAKVVGKKLVKEGPFGTLVYTIKQMKMYRGFTKMPHVQYIHTEASESLCGLKLEVNKYQYLLTGRVYDGKMYTGLCNFVERWDQLTLSQRKGLNYRYHLGCNCKIKSCYYLPCFVTSKNECLWTDMLSNFGYPGYQSKHYACIRQKGGYCSWYRGWAPPDKSIINATDP
For the molecule B1, in the series on ECFC [1] (setting [5]), the “sCD146 secretion with proteinase inhibitors” value was “able to reduce sCD146 secretion only when the cells were treated with TNF”.

B2: Wnt5a: stimulus of endothelial cells (protein, UniProt P41221 62-380, looked up)
Protein Wnt-5a: IIGAQPLCSQLAGLSQGQKKLCHLYQDHMQYIGEGAKTGIKECQYQFRHRRWNCSTVDNTSVFGRVMQIGSRETAFTYAVSAAGVVNAMSRACREGELSTCGCSRAARPKDLPRDWLWGGCGDNIDYGYRFAKEFVDARERERIHAKGSYESARILMNLHNNEAGRRTVYNLADVACKCHGVSGSCSLKTCWLQLADFRKVGDALKEKYDSAAAMRLNSRGKLVQVNSRFNSPTTQDLVYIDPSPDYCVRNESTGSLGTQGRLCNKTSEGMDGCELMCCGRGYDQFKTVQTERCHCKFHWCCYVKCKKCTEIVDQFVCK
In the case of B2, the “secretion of soluble CD146” value in the series on ECFC [1] is recorded as “increased”. Moreover, the “I5-13-sCD146 mRNA level” value with ECFC [3] is reported as “up-regulated”.

B3: Wnt3a: stimulus of endothelial cells (protein, UniProt P56704 19-352, looked up)
Protein Wnt-3a: SYPIWWSLAVGPQYSSLGSQPILCASIPGLVPKQLRFCRNYVEIMPSVAEGIKIGIQECQHQFRGRRWNCTTVHDSLAIFGPVLDKATRESAFVHAIASAGVAFAVTRSCAEGTAAICGCSSRHQGSPGKGWKWGGCSEDIEFGGMVSREFADARENRPDARSAMNRHNNEAGRQAIASHMHLKCKCHGLSGSCEVKTCWWSQPDFRAIGDFLKDKYDSASEMVVEKHRESRGWVETLRPRYTYFKVPTERDLVYYEASPNFCEPNPETGSFGTRDRTCNVSSHGIDGCDLLCCGRGHNARAERRREKCRCVFHWCCYVSCQECTRVYDVHTCK
Consider B3, for which, in the series on ECFC [3], the “I5-13-sCD146 mRNA level” value is given as “not modified” and the “I10-sCD146 mRNA level” value was “down-regulated”.
